The record followed here is publication PMC4577729, “7-(Pyrazol-4-yl)-3H-imidazo[4,5-b]pyridine-based derivatives for kinase inhibition: Co-crystallisation studies with Aurora-A reveal distinct differences in the orientation of the pyrazole N1-substituent” (Bioorganic & Medicinal Chemistry Letters, 2015).

For orientation: pIC50 means the negative decadic logarithm of the IC50, by convention in mol/L.

One data set deals with DAPK1 (Homo sapiens, UniProt P53355). The data set is described as follows: Kinase selectivity profiling. It counts as biochemical. To be noted: 1 µM, assay duplicates. As to the method: (§1) [20] Kinase selectivity profiling for compounds 7a, 7d, 14d and 14g was carried out at the International Centre for Protein Kinase Profiling, Division of Signal Transduction Therapy, University of Dundee.
(§2) Table S2: Kinase selectivity profiling of compounds 14d and 14g in a 105-kinase panel screened at a concentration of 1 µM.

The target of the next data set is EPH-B2 (Homo sapiens, UniProt P29323). Description: Kinase selectivity profiling. It counts as biochemical. To be noted: 1 µM, assay duplicates. The protocol: as §1, §2
A further data set deals with CLK2 (Homo sapiens, UniProt P49760). Description: Kinase selectivity profiling. Type of data set: biochemical. To be noted: 1 µM, assay duplicates. As to the method: as §1, §2
Chain of CLK2 (P49760 whole entry): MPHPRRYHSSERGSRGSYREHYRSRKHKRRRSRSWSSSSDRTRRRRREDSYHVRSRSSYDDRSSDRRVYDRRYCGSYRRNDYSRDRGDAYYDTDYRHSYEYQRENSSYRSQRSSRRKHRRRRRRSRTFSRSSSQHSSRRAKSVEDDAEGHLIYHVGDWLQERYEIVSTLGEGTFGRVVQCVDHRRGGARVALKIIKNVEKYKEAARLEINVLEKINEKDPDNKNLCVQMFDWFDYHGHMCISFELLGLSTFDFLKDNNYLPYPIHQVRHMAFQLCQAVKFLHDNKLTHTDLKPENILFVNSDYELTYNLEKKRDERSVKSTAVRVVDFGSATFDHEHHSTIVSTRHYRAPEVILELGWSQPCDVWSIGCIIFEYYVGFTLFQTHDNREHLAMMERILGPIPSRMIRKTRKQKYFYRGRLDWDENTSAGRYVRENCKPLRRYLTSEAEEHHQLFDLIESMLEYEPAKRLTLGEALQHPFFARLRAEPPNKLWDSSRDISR
Data set [1] in a line: Mouse liver microsomal stability. It counts as in vitro ADME. Conditions: percentage of compound metabolised after a 30 min incubation, mouse liver microsomes. The protocol: [18] MLM and HLM microsomal stabilities were determined as described in Ref. [12].
A further data set addresses EPH-B4 (Homo sapiens, UniProt P54760). The data set is described as follows: Kinase selectivity profiling. It counts as biochemical. To be noted: 1 µM, assay duplicates. In short, it runs like this: (§3)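 Each compound was tested at a single concentration of 1 µM within a broad panel of 102 or 105 protein kinases run by an external profiling centre.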
Another data set deals with RIPK2 (Homo sapiens, UniProt O43353). The data set is described as follows: Kinase selectivity profiling. Type of data set: biochemical. Conditions: 1 µM, assay duplicates. In short, it runs like this: as §3
Chain of RIPK2 (O43353 whole entry): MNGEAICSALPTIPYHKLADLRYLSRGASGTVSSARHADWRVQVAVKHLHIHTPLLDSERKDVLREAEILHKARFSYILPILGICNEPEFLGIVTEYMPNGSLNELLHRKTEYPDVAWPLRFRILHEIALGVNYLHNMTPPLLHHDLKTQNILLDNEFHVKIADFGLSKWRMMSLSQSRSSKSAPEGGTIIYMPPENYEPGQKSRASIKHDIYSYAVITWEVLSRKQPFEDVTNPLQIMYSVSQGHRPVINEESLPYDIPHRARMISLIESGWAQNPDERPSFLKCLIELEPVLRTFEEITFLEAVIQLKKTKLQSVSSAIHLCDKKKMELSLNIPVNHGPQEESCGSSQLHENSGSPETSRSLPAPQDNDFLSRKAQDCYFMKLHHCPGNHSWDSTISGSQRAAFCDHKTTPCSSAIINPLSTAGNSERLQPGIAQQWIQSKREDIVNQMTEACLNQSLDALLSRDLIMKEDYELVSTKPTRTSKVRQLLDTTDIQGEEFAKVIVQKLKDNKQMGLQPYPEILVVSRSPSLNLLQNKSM
In the next data set the target is NEK2a (Homo sapiens, UniProt P51955). Description: Kinase selectivity profiling. Type of data set: biochemical. To be noted: 1 µM, assay duplicates. In short, it runs like this:
as §3

In another data set the target is IRAK4 (Homo sapiens, UniProt Q9NWZ3). Description: Kinase selectivity profiling. Conditions: 1 µM, assay duplicates. Type of data set: biochemical. In a few lines: as §3
Chain of IRAK4 (Q9NWZ3 whole entry): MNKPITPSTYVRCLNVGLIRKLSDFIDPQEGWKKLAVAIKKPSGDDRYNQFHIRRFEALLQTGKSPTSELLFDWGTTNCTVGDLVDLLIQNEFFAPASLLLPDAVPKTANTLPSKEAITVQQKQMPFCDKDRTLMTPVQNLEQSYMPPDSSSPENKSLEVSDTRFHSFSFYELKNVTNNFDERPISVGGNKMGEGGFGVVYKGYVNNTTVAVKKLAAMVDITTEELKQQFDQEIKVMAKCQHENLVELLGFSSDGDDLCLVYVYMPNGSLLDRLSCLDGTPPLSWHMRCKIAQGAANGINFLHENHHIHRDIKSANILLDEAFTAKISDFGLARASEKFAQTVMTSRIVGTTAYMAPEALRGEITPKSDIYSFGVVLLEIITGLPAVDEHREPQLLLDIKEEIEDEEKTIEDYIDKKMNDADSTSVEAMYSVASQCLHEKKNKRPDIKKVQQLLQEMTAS
For data set [2], the target named is T1, Aurora B (Homo sapiens, UniProt Q96GD4). Description: Kinase selectivity profiling. Type of data set: biochemical. To be noted: 1 µM, assay duplicates. In short, it runs like this:
as §3

In a further data set the target is TAK1 (Homo sapiens, UniProt O43318). Description: Kinase selectivity profiling. It counts as biochemical. To be noted: 1 µM, assay duplicates. In short, it runs like this: as §3
Chain of TAK1 (O43318 1-303 limits assumed): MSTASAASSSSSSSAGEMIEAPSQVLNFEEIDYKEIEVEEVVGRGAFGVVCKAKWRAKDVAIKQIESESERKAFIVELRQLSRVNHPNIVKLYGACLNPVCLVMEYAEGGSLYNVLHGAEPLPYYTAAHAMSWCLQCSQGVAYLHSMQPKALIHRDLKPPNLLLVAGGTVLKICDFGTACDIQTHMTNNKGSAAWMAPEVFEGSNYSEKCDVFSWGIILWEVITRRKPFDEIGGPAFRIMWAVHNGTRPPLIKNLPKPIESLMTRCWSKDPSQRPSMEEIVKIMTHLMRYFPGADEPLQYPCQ
For another data set, the target named is HIPK2 (Homo sapiens, UniProt Q9H2X6). The data set is described as follows: Kinase selectivity profiling. Type of data set: biochemical. To be noted: 1 µM, assay duplicates. In short, it runs like this:
as §3

Data set [3] can be described thus: Mouse plasma protein binding. It counts as in vitro ADME. As to the method:
(§4) The mouse plasma protein binding for 7a and 7d was determined as 99.48% and >99.9%, respectively. […] In an attempt to improve the aqueous solubility, the Aurora inhibitory potency and kinase selectivity of this sub-series, we explored the introduction of basic substituents such as 1-methylpiperazine and pyrrolidine as well as replacement of the phenyl ring with a more polar heterocycle. […] It was anticipated that the introduction of small substituents on the phenyl ring in 7a would be well tolerated without altering its orientation in the kinase active site. Alternatively, we envisaged that Thr217 in Aurora-A may be accessed via an appropriate pyrazole N1-benzyl derivatisation such as a bulky amido substituent, which would form a favourable hydrogen bond interaction with the side chain hydroxyl of Thr217. Similar approaches were previously applied by us in the design of selective inhibitors of Aurora-A.[12,16]

Data set [4] is described as follows: In vivo mouse pharmacokinetic profiling. The protocol:
as §4

The next data set has as its target T2, Aurora A (Homo sapiens, UniProt O14965).
T2 sequence (O14965 1-403): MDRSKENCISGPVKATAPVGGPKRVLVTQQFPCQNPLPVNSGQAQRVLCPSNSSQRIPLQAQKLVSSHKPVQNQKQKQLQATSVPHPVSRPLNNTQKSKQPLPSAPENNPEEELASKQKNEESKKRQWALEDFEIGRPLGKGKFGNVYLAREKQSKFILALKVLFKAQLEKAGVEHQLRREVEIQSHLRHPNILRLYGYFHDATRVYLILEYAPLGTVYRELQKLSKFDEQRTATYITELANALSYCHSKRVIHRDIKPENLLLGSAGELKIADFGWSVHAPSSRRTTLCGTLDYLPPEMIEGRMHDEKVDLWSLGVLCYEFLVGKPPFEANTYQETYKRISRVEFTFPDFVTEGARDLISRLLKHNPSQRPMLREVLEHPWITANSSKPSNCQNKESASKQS
Description: Aurora-A autophosphorylation at T288 in HeLa cells. Type of data set: cell-based. To be noted: read-out: p-T288 IC50 (Aurora-A autophosphorylation). From the text:
(§5) As part of our medicinal chemistry programme to discover selective inhibitors of Aurora-A,[12] we introduced the 1-benzyl-1H-pyrazol-4-yl moiety at C7 of the imidazo[4,5-b]pyridine scaffold to provide 7a (Table 1). We previously reported 1,3-dimethyl-1H-pyrazol-4-yl as a preferred substituent at the C2 position of the imidazo[4,5-b]pyridine scaffold[11] and this moiety was therefore incorporated into the design of 7a and analogues presented in this study. […] This in vitro profile prompted us to investigate this C7-pyrazole substituted imidazo[4,5-b]pyridine subseries in more detail. Firstly, we attempted to increase biochemical potency against Aurora-A, and also to improve microsomal stability.

The next data set is described as follows: Kinetic solubility. To be noted: phosphate buffer, pH = 6.8. Type of data set: physicochemical. The protocol: as §4
[23] Solubility measurements were performed by Pharmorphix® Solid State Services, Member of the Sigma–Aldrich Group, Cambridge, UK.

Data set [5] is described as follows: Protein binding in microsomal incubations (HLM). Type of data set: in vitro ADME, human. As to the method: (§6) For a better understanding of the microsomal stability data, the protein binding for 7a, 7d and 7e in microsomal incubations was measured. The percentage of 7a unbound in MLM and HLM was determined as 6.71 and 4.89, respectively. Compounds 7d and 7e were more highly bound: for 7d the percentage unbound was 0.50 in both MLM and HLM and for 7e was 0.16 and 0.10, respectively. […] The potent cell-based activity prompted us to investigate kinome selectivity profiles for this class of compound by screening 7a and 7d in a 102-kinase panel at a concentration of 1 μM.[20] […] The Gini coefficient for compound 3 was reported as 0.719,[12] and the corresponding value for compound 1 is 0.560. To understand the potential for further improvement, we obtained the crystal structure of 7a bound to Aurora-A[22] (Fig. 3, Table S3, Supplementary data). […] Similar to crystal structures of previous compounds 1, 15 and 16 (Figs. 1 and 2; compounds 51 and 40c in Ref. [10], and compound 21a in Ref. [11], respectively) the N-benzyl substituent on the C7-pyrazole is oriented towards the P-loop, making Van der Waals contacts with Val147 and Gly142 (Fig. 3).

Data set [6] deals with T1, Aurora B. The data set is described as follows: Histone H3 phosphorylation at S10 in HeLa cells. Conditions: read-out: p-HH3 IC50 (histone H3 phosphorylation at S10). Type of data set: cell-based.
Source text: as §5

Data set [7] in a line: Protein binding in microsomal incubations (MLM). Type of data set: in vitro ADME, mouse. As to the method:
as §6

pIC50: −log10 of the molar value.

Chain of HIPK2 (Q9H2X6 whole entry): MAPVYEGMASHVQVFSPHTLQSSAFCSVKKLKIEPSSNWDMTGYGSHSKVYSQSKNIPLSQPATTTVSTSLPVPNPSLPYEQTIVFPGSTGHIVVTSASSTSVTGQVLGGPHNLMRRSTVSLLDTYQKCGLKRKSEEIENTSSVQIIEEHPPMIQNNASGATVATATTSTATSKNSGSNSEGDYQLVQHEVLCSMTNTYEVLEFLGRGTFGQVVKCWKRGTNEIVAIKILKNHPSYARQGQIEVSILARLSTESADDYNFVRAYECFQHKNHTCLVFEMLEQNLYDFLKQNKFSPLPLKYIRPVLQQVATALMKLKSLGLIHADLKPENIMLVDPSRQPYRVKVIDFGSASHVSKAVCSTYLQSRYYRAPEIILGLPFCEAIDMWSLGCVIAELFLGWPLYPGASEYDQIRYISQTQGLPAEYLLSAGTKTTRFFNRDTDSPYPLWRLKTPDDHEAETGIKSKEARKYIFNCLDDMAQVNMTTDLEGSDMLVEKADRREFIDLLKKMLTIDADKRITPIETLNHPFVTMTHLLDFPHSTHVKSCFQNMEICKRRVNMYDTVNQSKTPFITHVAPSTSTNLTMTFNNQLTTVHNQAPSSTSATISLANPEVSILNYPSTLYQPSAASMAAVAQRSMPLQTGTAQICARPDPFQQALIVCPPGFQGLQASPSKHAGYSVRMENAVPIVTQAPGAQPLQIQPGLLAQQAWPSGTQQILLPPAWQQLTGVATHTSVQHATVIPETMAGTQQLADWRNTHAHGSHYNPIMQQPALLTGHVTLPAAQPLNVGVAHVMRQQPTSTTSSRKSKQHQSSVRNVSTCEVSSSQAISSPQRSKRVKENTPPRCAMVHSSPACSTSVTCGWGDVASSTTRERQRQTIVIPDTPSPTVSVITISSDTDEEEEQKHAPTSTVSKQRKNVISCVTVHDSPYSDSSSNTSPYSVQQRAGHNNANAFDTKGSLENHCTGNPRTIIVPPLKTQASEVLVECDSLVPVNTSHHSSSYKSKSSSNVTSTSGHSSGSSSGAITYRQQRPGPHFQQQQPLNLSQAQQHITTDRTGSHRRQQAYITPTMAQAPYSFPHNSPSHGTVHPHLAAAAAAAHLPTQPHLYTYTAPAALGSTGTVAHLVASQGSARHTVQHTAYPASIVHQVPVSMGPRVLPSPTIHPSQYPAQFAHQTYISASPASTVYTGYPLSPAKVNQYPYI
T1 sequence (Q96GD4 whole entry): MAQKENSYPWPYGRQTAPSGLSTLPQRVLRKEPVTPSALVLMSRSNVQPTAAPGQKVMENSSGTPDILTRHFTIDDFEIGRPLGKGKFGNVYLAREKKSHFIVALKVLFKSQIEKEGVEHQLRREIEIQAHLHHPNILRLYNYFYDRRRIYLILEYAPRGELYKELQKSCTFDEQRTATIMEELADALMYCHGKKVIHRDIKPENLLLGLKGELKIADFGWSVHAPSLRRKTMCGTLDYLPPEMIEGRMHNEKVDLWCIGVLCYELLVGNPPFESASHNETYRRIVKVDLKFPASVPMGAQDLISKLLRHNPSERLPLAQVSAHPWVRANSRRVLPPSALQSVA
Chain of NEK2a (P51955 whole entry): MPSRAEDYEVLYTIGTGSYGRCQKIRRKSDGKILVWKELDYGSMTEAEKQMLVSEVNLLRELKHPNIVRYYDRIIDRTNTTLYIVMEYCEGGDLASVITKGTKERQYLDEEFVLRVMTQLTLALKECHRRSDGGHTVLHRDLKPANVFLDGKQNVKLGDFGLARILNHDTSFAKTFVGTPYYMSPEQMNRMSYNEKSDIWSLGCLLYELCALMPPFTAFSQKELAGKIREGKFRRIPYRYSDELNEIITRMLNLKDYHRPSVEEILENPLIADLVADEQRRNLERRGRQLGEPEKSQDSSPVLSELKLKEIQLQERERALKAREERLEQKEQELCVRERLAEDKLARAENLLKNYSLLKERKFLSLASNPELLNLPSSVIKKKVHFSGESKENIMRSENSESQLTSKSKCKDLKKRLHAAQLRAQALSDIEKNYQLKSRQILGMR
Chain of EPH-B4 (P54760 16-987): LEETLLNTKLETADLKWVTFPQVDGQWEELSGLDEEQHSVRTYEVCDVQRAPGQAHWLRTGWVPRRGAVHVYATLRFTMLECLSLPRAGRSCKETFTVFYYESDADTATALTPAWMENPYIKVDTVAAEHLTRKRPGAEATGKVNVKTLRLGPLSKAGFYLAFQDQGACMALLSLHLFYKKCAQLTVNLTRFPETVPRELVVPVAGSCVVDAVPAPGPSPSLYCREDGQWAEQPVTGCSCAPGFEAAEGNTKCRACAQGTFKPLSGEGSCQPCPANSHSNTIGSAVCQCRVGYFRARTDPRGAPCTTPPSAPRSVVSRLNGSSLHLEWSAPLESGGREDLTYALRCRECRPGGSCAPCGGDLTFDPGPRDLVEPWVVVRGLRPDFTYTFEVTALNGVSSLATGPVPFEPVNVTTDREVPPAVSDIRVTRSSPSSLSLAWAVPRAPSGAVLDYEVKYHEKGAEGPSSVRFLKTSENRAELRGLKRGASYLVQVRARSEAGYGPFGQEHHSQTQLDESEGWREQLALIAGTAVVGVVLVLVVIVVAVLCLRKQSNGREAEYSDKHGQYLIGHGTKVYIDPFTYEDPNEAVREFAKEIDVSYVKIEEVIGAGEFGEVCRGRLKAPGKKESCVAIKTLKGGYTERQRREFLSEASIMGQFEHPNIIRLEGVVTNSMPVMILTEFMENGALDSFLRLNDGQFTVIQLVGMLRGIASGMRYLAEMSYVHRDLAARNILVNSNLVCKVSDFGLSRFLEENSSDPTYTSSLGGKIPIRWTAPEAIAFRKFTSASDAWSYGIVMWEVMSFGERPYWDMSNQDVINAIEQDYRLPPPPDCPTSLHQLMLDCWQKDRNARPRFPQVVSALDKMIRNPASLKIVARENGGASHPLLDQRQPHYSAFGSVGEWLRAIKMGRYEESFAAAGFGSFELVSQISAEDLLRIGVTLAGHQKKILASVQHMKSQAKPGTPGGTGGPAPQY

For `Cc1cc(Cn2cc(-c3c(Cl)cnc4[nH]c(-c5cn(C)nc5C)nc34)cn2)no1` [Compound 14d], on DAPK1, the “DAPK1 % activity remaining” value came out at 24%. At EPH-B2, the “EPH-B2 % activity remaining” value is reported as 60%. Also, at CLK2, the “CLK2 % activity remaining” value amounted to 2%. Further, in data set [1], the “MLM % met/30 min” value is 35%. For the same compound, the “EPH-B4 % activity remaining” value at EPH-B4 amounted to 86%. Also, the “RIPK2 % activity remaining” value on RIPK2 was determined as 49%. For the same compound, the “NEK2a % activity remaining” value at NEK2a is 71%. On IRAK4, the “IRAK4 % activity remaining” value was found to be 33%. Also, the “Aurora B % activity remaining” value at Aurora B [2] is 8%. For the same compound, at TAK1, the “TAK1 % activity remaining” value was 18%. Further, the “HIPK2 % activity remaining” value on HIPK2 came to 11%.
For the compound `Cc1nn(C)cc1-c1nc2c(-c3cnn(Cc4ccccc4)c3)c(Cl)cnc2[nH]1` [Compound 7a], the “mouse plasma protein binding” value in data set [3] amounted to 99.48%. Moreover, in [4], the oral bioavailability was 13%. Also, the pIC50 was 7.06 on Aurora A and 6.65 on Aurora B [6]. For the same compound, the “MLM % met/30 min” value in data set [1] was found to be 40%. The compound further displayed a kinetic solubility in the data set “Kinetic solubility” of less than 0.1 µg/mL. For the same compound, on RIPK2, the “RIPK2 % activity remaining” value is on record as 40%. On NEK2a, the “NEK2a % activity remaining” value came to 67%. In addition, at IRAK4, the “IRAK4 % activity remaining” value is reported as 28%. For the same compound, the “TAK1 % activity remaining” value on TAK1 is 6%. The “HIPK2 % activity remaining” value on HIPK2 is on record as 6%. Further, the “percentage unbound in HLM” value in [5] is recorded as 4.89%. Moreover, in data set [7], the “percentage unbound in MLM” value stood at 6.71%.
